# Target: T1, JAK2 (JH1domain-catalytic, Y1007F,Y1008F) kinase (Homo sapiens, UniProt O60674, Y1007F/Y1008F)
# T1 construct: JAK2 (JH1domain-catalytic, Y1007F,Y1008F) kinase was expressed as N-terminal fusion; made in house; host or cells: transiently transfected HEK293 cells
# Test: JAK2 JH1 Domain Binding Assay
# Conditions: qPCR readout
# T1 sequence (O60674 849-1124 Y1007F/Y1008F limits assumed): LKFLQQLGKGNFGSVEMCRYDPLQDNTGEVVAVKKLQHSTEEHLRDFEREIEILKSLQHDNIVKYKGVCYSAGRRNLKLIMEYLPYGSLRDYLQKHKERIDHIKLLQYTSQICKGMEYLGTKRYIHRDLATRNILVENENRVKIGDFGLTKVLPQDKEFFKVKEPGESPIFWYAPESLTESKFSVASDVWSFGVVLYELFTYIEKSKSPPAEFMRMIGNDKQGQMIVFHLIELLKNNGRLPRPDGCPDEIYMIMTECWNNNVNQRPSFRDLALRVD
row,Structure (SMILES),Kd [nM]
1,"Cn1c(Nc2cnc(N3CCC3)c(C(F)(F)F)c2)nc2ncc(Oc3cnn4ccncc34)c(Cl)c21 [Example I-203, N-(6-(azetidin-1-yl)-5-(trifluoromethyl)pyridin-3-yl)-7-chloro-1-methyl-6-(pyrazolo[1,5-a]pyrazin-3-yloxy)-1H-imidazo[4,5-b]pyridin-2-amine]",10 to 50
2,"Cn1c(Nc2ccc(CN3CCN(CC(F)F)CC3)c(C(F)(F)F)c2)nc2ncc(Oc3cnn4ccncc34)c(Cl)c21 [Example I-208, 7-chloro-N-(4-((4-(2,2-difluoroethyl)piperazin-1-yl)methyl)-3-(trifluoromethyl)phenyl)-1-methyl-6-(pyrazolo[1,5-a]pyrazin-3-yloxy)-1H-imidazo[4,5-b]pyridin-2-amine]",50 to 1000
3,"CN1CC[C@@H](Oc2cc(Nc3nc4ncc(Oc5cnn6ccncc56)c(Cl)c4n3C)cc(C(F)(F)F)c2)C1 [Example I-209, (R)-7-chloro-1-methyl-N-(3-((1-methylpyrrolidin-3-yl)oxy)-5-(trifluoromethyl)phenyl)-6-(pyrazolo[1,5-a]pyrazin-3-yloxy)-1H-imidazo[4,5-b]pyridin-2-amine]",10 to 50
4,"Cn1c(Nc2cc(C(F)(F)F)cn([C@H]3C[C@@H](O)C3)c2=O)nc2ncc(Oc3cnn4ccc(F)cc34)c(Cl)c21 [Example I-213, cis-3-((7-chloro-6-((5-fluoropyrazolo[1,5-a]pyridin-3-yl)oxy)-1-methyl-1H-imidazo[4,5-b]pyridin-2-yl)amino)-1-(3-hydroxycyclobutyl)-5-(trifluoromethyl)pyridin-2(1H)-one]",10 to 50
5,"CNc1nccn2ncc(Oc3cnc4nc(Nc5ccc(CN6CC(C#N)C6)c(C(F)(F)F)c5)n(C)c4c3Cl)c12 [Example I-216, 1-(4-((7-chloro-1-methyl-6-((4-(methylamino)pyrazolo[1,5-a]pyrazin-3-yl)oxy)-1H-imidazo[4,5-b]pyridin-2-yl)amino)-2-(trifluoromethyl)benzyl)azetidine-3-carbonitrile]",10 to 50
6,"CNc1nccn2ncc(Oc3cnc4nc(Nc5cc(-n6cnc(C)c6)cc(C(F)(F)F)c5)n(C)c4c3Cl)c12 [Example I-219, 7-chloro-1-methyl-N-(3-(4-methyl-1H-imidazol-1-yl)-5-(trifluoromethyl)phenyl)-6-((4-(methylamino)pyrazolo[1,5-a]pyrazin-3-yl)oxy)-1H-imidazo[4,5-b]pyridin-2-amine]",10 to 50
7,"CNc1nccn2ncc(Oc3cnc4nc(Nc5cc(N6CCN(C)CC6)cc(C(F)(F)F)c5)n(C)c4c3Cl)c12 [Example I-220, 7-chloro-1-methyl-6-((4-(methylamino)pyrazolo[1,5-a]pyrazin-3-yl)oxy)-N-(3-(4-methylpiperazin-1-yl)-5-(trifluoromethyl)phenyl)-1H-imidazo[4,5-b]pyridin-2-amine]",10 to 50
8,"CNc1nccn2ncc(Oc3cnc4nc(Nc5cc(C(F)(F)F)cn(C)c5=O)n(C)c4c3)c12 [Example I-221, 1-methyl-3-((1-methyl-6-((4-(methylamino)pyrazolo[1,5-a]pyrazin-3-yl)oxy)-1H-imidazo[4,5-b]pyridin-2-yl)amino)-5-(trifluoromethyl)pyridin-2(1H)-one]",10 to 50
9,CNc1nccn2ncc(Oc3cnc4nc(Oc5cc(C6CC6)cn(C(C)C)c5=O)n(C)c4c3Cl)c12 [Example I-222],10 to 50
10,"CNc1nccn2ncc(Oc3cnc4nc(Nc5cc(C(F)(F)F)c[nH]c5=O)n(C)c4c3Cl)c12 [Example I-223, 3-((7-chloro-1-methyl-6-((4-(methylamino)pyrazolo[1,5-a]pyrazin-3-yl)oxy)-1H-imidazo[4,5-b]pyridin-2-yl)amino)-5-(trifluoromethyl)pyridin-2(1H)-one]",< 10
11,"COc1nccn2ncc(Oc3cnc4nc(Nc5cc(C(F)(F)F)cn(C)c5=O)n(C)c4c3Cl)c12 [Example I-224, 3-((7-chloro-6-((4-methoxypyrazolo[1,5-a]pyrazin-3-yl)oxy)-1-methyl-1H-imidazo[4,5-b]pyridin-2-yl)amino)-1-methyl-5-(trifluoromethyl)pyridin-2(1H)-one]",< 10
12,"Cn1cc(C(F)(F)F)cc(Nc2nc3ncc(Oc4cnn5ccnc(N[C@H]6CCOC6)c45)c(Cl)c3n2C)c1=O [Example I-225, (S)-3-((7-chloro-1-methyl-6-((4-((tetrahydrofuran-3-yl)amino)pyrazolo[1,5-a]pyrazin-3-yl)oxy)-1H-imidazo[4,5-b]pyridin-2-yl)amino)-1-methyl-5-(trifluoromethyl)pyridin-2(1H)-one]",< 10
13,"CNc1nccn2ncc(Oc3cnc4nc(Nc5cc(C(=O)N(C)C)c(F)c(C(F)(F)F)c5)n(C)c4c3Cl)c12 [Example I-226, 5-((7-chloro-1-methyl-6-((4-(methylamino)pyrazolo[1,5-a]pyrazin-3-yl)oxy)-1H-imidazo[4,5-b]pyridin-2-yl)amino)-2-fluoro-N,N-dimethyl-3-(trifluoromethyl)benzamide]",10 to 50
14,"CNc1nccn2ncc(Oc3cnc4nc(Nc5cc(OC6CCN(C)CC6)cc(C(F)(F)F)c5)n(C)c4c3Cl)c12 [Example I-227, 7-chloro-1-methyl-6-((4-(methylamino)pyrazolo[1,5-a]pyrazin-3-yl)oxy)-N-(3-((1-methylpiperidin-4-yl)oxy)-5-(trifluoromethyl)phenyl)-1H-imidazo[4,5-b]pyridin-2-amine]",10 to 50

# The next lines start with the values.
row,Kd [nM],Structure (SMILES)
1,< 10,"CNc1nccn2ncc(Oc3cnc4nc(Nc5cc(C(F)(F)F)cn(C(C)C)c5=O)n(C)c4c3Cl)c12 [Example I-202, 3-((7-chloro-1-methyl-6-((4-(methylamino)pyrazolo[1,5-a]pyrazin-3-yl)oxy)-1H-imidazo[4,5-b]pyridin-2-yl)amino)-1-isopropyl-5-(trifluoromethyl)pyridin-2(1H)-one]"
2,< 10,"Cn1c(Nc2cc(CN3CC[C@@H](O)C3)cc(C(F)(F)F)c2)nc2ncc(Oc3cnn4ccncc34)c(Cl)c21 [Example I-204, (R)-1-(3-((7-chloro-1-methyl-6-(pyrazolo[1,5-a]pyrazin-3-yloxy)-1H-imidazo[4,5-b]pyridin-2-yl)amino)-5-(trifluoromethyl)benzyl)pyrrolidin-3-ol]"
3,< 10,"Cn1c(Nc2cc(CN3CC[C@H](O)C3)cc(C(F)(F)F)c2)nc2ncc(Oc3cnn4ccncc34)c(Cl)c21 [Example I-205, (S)-1-(3-((7-chloro-1-methyl-6-(pyrazolo[1,5-a]pyrazin-3-yloxy)-1H-imidazo[4,5-b]pyridin-2-yl)amino)-5-(trifluoromethyl)benzyl)pyrrolidin-3-ol]"
4,< 10,"CN1CCC(Oc2cc(Nc3nc4ncc(Oc5cnn6ccncc56)c(Cl)c4n3C)cc(C(F)(F)F)c2)CC1 [Example I-206, 7-chloro-1-methyl-N-(3-((1-methylpiperidin-4-yl)oxy)-5-(trifluoromethyl)phenyl)-6-(pyrazolo[1,5-a]pyrazin-3-yloxy)-1H-imidazo[4,5-b]pyridin-2-amine]"
5,< 10,"Cn1c(Nc2ccc(CN3CCN(CCO)CC3)c(C(F)(F)F)c2)nc2ncc(Oc3cnn4ccncc34)c(Cl)c21 [Example I-207, 2-(4-(4-((7-chloro-1-methyl-6-(pyrazolo[1,5-a]pyrazin-3-yloxy)-1H-imidazo[4,5-b]pyridin-2-yl)amino)-2-(trifluoromethyl)benzyl)piperazin-1-yl)ethan-1-ol]"
6,< 10,"CN1CC[C@H](Oc2cc(Nc3nc4ncc(Oc5cnn6ccncc56)c(Cl)c4n3C)cc(C(F)(F)F)c2)C1 [Example I-210, (S)-7-chloro-1-methyl-N-(3-((1-methylpyrrolidin-3-yl)oxy)-5-(trifluoromethyl)phenyl)-6-(pyrazolo[1,5-a]pyrazin-3-yloxy)-1H-imidazo[4,5-b]pyridin-2-amine]"
7,< 10,"COc1c(Oc2cnn3ccnc(OC)c23)cnc2nc(Nc3cc(C4CC4)cn(C)c3=O)n(C)c12 [Example I-211, 5-cyclopropyl-3-((7-methoxy-6-((4-methoxypyrazolo[1,5-a]pyrazin-3-yl)oxy)-1-methyl-1H-imidazo[4,5-b]pyridin-2-yl)amino)-1-methylpyridin-2(1H)-one]"
8,< 10,"Cn1cc(C(F)(F)F)cc(Nc2nc3ncc(Oc4cnn5ccccc45)c(C#N)c3n2C)c1=O [Example I-212, 1-methyl-2-((1-methyl-2-oxo-5-(trifluoromethyl)-1,2-dihydropyridin-3-yl)amino)-6-(pyrazolo[1,5-a]pyridin-3-yloxy)-1H-imidazo[4,5-b]pyridine-7-carbonitrile]"
9,< 10,"CNc1nccn2ncc(Oc3cnc4nc(Nc5cc(C(F)(F)F)cn([C@H]6C[C@@H](O)C6)c5=O)n(C)c4c3Cl)c12 [Example I-214, 3-((7-chloro-1-methyl-6-((4-(methylamino)pyrazolo[1,5-a]pyrazin-3-yl)oxy)-1H-imidazo[4,5-b]pyridin-2-yl)amino)-1-((1s,3s)-3-hydroxycyclobutyl)-5-(trifluoromethyl)pyridin-2(1H)-one]"
10,< 10,"CN(C)Cc1cc(F)c(Nc2nc3ncc(Oc4cnn5ccncc45)c(Cl)c3n2C)cc1C(F)(F)F [Example I-215, 7-chloro-N-(4-((dimethylamino)methyl)-2-fluoro-5-(trifluoromethyl)phenyl)-1-methyl-6-(pyrazolo[1,5-a]pyrazin-3-yloxy)-1H-imidazo[4,5-b]pyridin-2-amine]"
11,< 10,"[2H]C([2H])([2H])n1cc(C(F)(F)F)cc(Nc2nc3ncc(Oc4cnn5ccnc(NC)c45)c(Cl)c3n2C)c1=O [Example I-217, 3-((7-chloro-1-methyl-6-((4-(methylamino)pyrazolo[1,5-a]pyrazin-3-yl)oxy)-1H-imidazo[4,5-b]pyridin-2-yl)amino)-1-(methyl-d3)-5-(trifluoromethyl)pyridin-2(1H)-one]"
12,< 10,"CN1CC(Oc2cc(Nc3nc4ncc(Oc5cnn6ccncc56)c(Cl)c4n3C)cc(C(F)(F)F)c2)C1 [Example I-218, 7-chloro-1-methyl-N-(3-((1-methylazetidin-3-yl)oxy)-5-(trifluoromethyl)phenyl)-6-(pyrazolo[1,5-a]pyrazin-3-yloxy)-1H-imidazo[4,5-b]pyridin-2-amine]"

# Source: US12043632B2, “6-heteroaryloxy benzimidazoles and azabenzimidazoles as JAK2 inhibitors” (Ajax Therapeutics, Inc., priority 2020, dated 2024)
